The source made the active and inactive calls. The rule behind the calls is not given here.

For orientation: IC50 means the point on the concentration scale where inhibition reaches its midpoint.

For the test, the target named is glucose-6-phosphate dehydrogenase-6-phosphogluconolactonase (Plasmodium falciparum 3D7). The test can be described thus: inhibition of P. falciparum G6PD activity – biochemical, end-point NADPH detection, orthogonal assay, dose response (AID 540252). As to conditions: purified PfG6PD enzyme, NADPH direct detection.
For the compound `O=C(Nc1nnc(S(=O)(=O)N2CCCC2)s1)c1cccc([N+](=O)[O-])c1`, the IC50 was > 80 µM (inactive).

For the compound `O=C(Nc1ccccc1C(=O)N/N=C/c1ccco1)c1ccccc1Cl`, the IC50 was > 80 µM (inactive).

Turning to `COC(=O)[C@H](CCSC)NC(=O)c1cc2c(cn1)[nH]c1ccccc12`, the IC50 was > 80 µM (inactive).

In the case of `CCCN1CCc2cccc3c2[C@H]1Cc1ccc(O)c(O)c1-3`, the IC50 is > 80 µM (inactive).

For `Cn1c(-c2sccc2OCc2cccc(C(F)(F)F)c2)n[nH]c1=S`, the IC50 is > 80 µM (inactive).

For the compound `OCCN1CCN(C(=S)c2ccc(-c3ccccc3)cc2)CC1`, the IC50 is > 80 µM (inactive).

With `Cc1cccc(C(=O)Nc2nnc(S(=O)(=O)N3CCCCCC3)s2)c1`, the IC50 is > 80 µM (inactive).

As for `COc1ccc(NS(=O)(=O)c2ccc(N3CCCC3)c(NC(=S)Nc3cccc(C)c3C)c2)cc1`, the IC50 is > 80 µM (inactive).

As to `Cc1ccc(NC(=O)c2cc(N3C(=O)C=CC3=O)ccc2N2CCOCC2)cc1`, the IC50 is > 80 µM (inactive).

With `COc1cccc(C2(c3cccc(OC)c3)CC2C(=O)Nc2ccc(F)cc2)c1` (stereo unspecified), the IC50 is > 80 µM (inactive).

Consider `Cc1ccsc1/C=N\NC(=O)CC(=O)NCc1ccccc1`, for which the IC50 is > 80 µM (inactive).

On to `C=CCSc1nnc(NC(=O)c2ccc(Cl)nc2)s1`, for which the IC50 was > 80 µM (inactive).

In the case of `Cc1ccc(S(=O)(=O)N(C)C)cc1NC(=O)CSc1nc2ncc(Cl)cc2[nH]1`, the IC50 is > 80 µM (inactive).

For `COc1ccc(C2(CNC(=O)c3ccc(OC)c([N+](=O)[O-])c3)CCCCC2)cc1OC`, the IC50 is > 80 µM (inactive).

For the compound `CCCCCCCCSC1=CC(=O)C(OC)=C(OC)C1=O`, the IC50 is > 80 µM (inactive).

For the compound `COc1ccc(S(=O)(=O)Nc2cc(SCC(=O)O)c(O)c3ccccc23)cc1`, the IC50 is > 80 µM (inactive).

As for `Cc1ccc2nc(SCC(=O)N/N=C/c3ccco3)cc(C)c2c1`, the IC50 was > 80 µM (inactive).

`CN(C)Cc1cc(O)c(CN(C)C)cc1O`: the IC50 is > 80 µM (inactive).

In the case of `CC1(C)Cc2c(sc3nc4n(-c5ccccc5)c(=O)c(CCC(=O)O)nn4c(=O)c23)CO1`, the half-maximal inhibitory concentration (IC50) is 8.84 µM.

As to `Cc1ccc(/C=C/C(=O)NCC2COc3ccccc3O2)o1` (stereo unspecified), the IC50 is > 80 µM (inactive).

As to `CCC1(C)CC(C(N)=S)CCO1` (stereo unspecified), the IC50 is > 80 µM (inactive).

`CN1CCc2cc(O)cc3c2[C@H]1Cc1ccc(O)c(O)c1-3`: the IC50 is > 80 µM (inactive).

As to `Cc1ccc(C(=O)Nc2nnc(S(=O)(=O)N3CCC(C)CC3)s2)cc1`, the IC50 was > 80 µM (inactive).

Consider `Cc1ccc(CNc2ccc(O)cc2)cc1`, for which the IC50 is > 80 µM (inactive).

`Cc1[nH]c2ccccc2c1/C=N/NC(=O)c1cccc(S(=O)(=O)Nc2ccccc2Cl)c1`: the IC50 was > 80 µM (inactive).

Take `CCSc1nc2cc(S(=O)(=O)N3CCOCC3)ccc2o1`: the IC50 is > 80 µM (inactive).

For the compound `CC(SCC(=O)Nc1ccccc1)c1nc2ccccc2c(=O)[nH]1` (stereo unspecified), the IC50 is > 80 µM (inactive).

As for `COc1ccc(NC(C)C(=O)N/N=C/c2cc(Br)ccc2OC)cc1` (stereo unspecified), the IC50 was > 80 µM (inactive).

On to `COc1ccc(Cl)cc1NC(=O)c1cccc([N+](=O)[O-])c1O`, for which the IC50 is > 80 µM (inactive).

In the case of `COC1=C(Br)C(=O)c2nc(C)ccc2C1=O`, the IC50 was > 80 µM (inactive).

With `CCN(CC)c1ccc(NC(=O)c2ccccc2Br)cc1S(=O)(=O)Nc1ccccc1OC`, the IC50 was > 80 µM (inactive).

Take `O=C(O)c1cc(N2C(=O)C=CC2=O)cc(N2C(=O)C=CC2=O)c1`: the half-maximal inhibitory concentration (IC50) is 18.9 µM.

As to `CN=c1scc(C)n1/N=C/c1ccc(O)c(O)c1O`, the IC50 was > 80 µM (inactive).

As for `O=C(O)C(Cc1ccccc1)N1C(=O)C=CC1=O` (stereo unspecified), the IC50 was 51 µM.

As for `COc1cccc(/C=N/NC(=O)c2c(C)nc3ccc(Br)cn23)c1`, the IC50 is > 80 µM (inactive).

With `Cc1c(C(=O)N(Cc2ccccc2Cl)C2CCS(=O)(=O)C2)oc2ccccc12` (stereo unspecified), the IC50 was > 80 µM (inactive).

As to `O=c1ccsn1Cc1ccccc1`, the IC50 is 55.8 µM.

Take `COCc1cc(=O)n2[nH]c(C(C)(C)C)cc2n1`: the IC50 is > 80 µM (inactive).

Take `Cn1c(=O)[nH]c(=O)c2c1nc(SCCN1CCCCC1)n2CCCc1ccccc1`: the IC50 was > 80 µM (inactive).

Regarding `O=c1[nH]c2ccc(NCc3ccccc3OCc3ccc(Cl)cc3)cc2[nH]1`, the IC50 was > 80 µM (inactive).

Regarding `COc1ccc(C(=O)Nc2nnc(S(=O)(=O)N3CCOCC3)s2)cc1`, the IC50 was > 80 µM (inactive).

`CN(C)c1nc(=NCc2cccs2)ss1`: the IC50 was > 80 µM (inactive).

For the compound `COc1ccc(CCn2c(NN=C3CCCCC3)nc3c2c(=O)[nH]c(=O)n3C)cc1`, the IC50 was > 80 µM (inactive).

`CCN1CCCC1CNC(=O)c1ccc2c(c1)NC(=O)/C(=C\c1ccccc1Cl)S2` (stereo unspecified): the IC50 is > 80 µM (inactive).

On to `CCOC(=O)Cc1csc(-n2sc3ccccc3c2=O)n1`, for which the IC50 was > 80 µM (inactive).

As for `O=C1Nc2ccccc2C(=O)C1(Cl)Cc1ccccc1` (stereo unspecified), the IC50 was > 80 µM (inactive).

For `CCOc1ccc2ccccc2c1/C=N/NC(=O)c1ccncc1`, the IC50 was > 80 µM (inactive).

As to `Cc1cc(C)c2c(=O)n(CC(=O)Nc3cccc(F)c3)sc2n1`, the IC50 is > 80 µM (inactive).

Take `CCN1CCCC1CNC(=O)c1ccc2c(c1)NC(=O)/C(=C\c1ccccc1F)S2` (stereo unspecified): the IC50 is > 80 µM (inactive).

Consider `CN1CCN(C(=S)c2ccc([N+](=O)[O-])cc2)CC1`, for which the IC50 is 65.5 µM.

Regarding `O=C(Nc1nnc(C2CC2)s1)c1ccc(Cl)nc1`, the IC50 was > 80 µM (inactive).

In the case of `Cc1[nH]c2ccccc2c1/C=N/Nc1nncn1N`, the IC50 is > 80 µM (inactive).

With `CCNc1cc2c(cc1O)CCC1C2CCC2(C)C(O)CCC12` (stereo unspecified), the IC50 was > 80 µM (inactive).

As for `O=c1c2cc(F)ccc2sn1-c1ccc(F)cc1`, the IC50 was 25.5 µM.

As to `COc1cc(N)c2ncccc2c1Cl`, the IC50 is > 80 µM (inactive).

Take `N#CC(C#N)=C1C=CC=CN1/C(=C\c1ccccc1Cl)C(=O)c1ccccc1`: the IC50 was > 80 µM (inactive).

As to `O=C(CNC(=O)c1ccccc1)NCC(=O)OCC(=O)c1ccc([N+](=O)[O-])cc1`, the IC50 is 59.6 µM.

As for `CCc1c(C(=O)Nc2ccccc2)c(C)[nH]c(=S)c1C#N`, the IC50 is > 80 µM (inactive).

`CN(C)c1ccc2nc3ccc(=O)cc-3sc2c1`: the IC50 is > 80 µM (inactive).

As to `Cn1c(=O)c2[nH]c(-c3ccccc3)c(O)c2n(C)c1=O`, the IC50 is > 80 µM (inactive).

In the case of `Clc1ccc2nc(-c3ccc4c(c3)OCO4)cn2c1`, the IC50 was > 80 µM (inactive).

Regarding `Clc1ccc2nc(-c3ccc(Br)s3)cn2c1`, the IC50 was > 80 µM (inactive).

`CC(=O)OCCCNc1cc(Sc2nc3ccccc3s2)c2nonc2c1[N+](=O)[O-]`: the IC50 was > 80 µM (inactive).

Regarding `COc1cc(/C=N/n2cc(-c3ccccc3)[nH]c2=S)cc(OC)c1O`, the IC50 was > 80 µM (inactive).

For the compound `CC(=O)Nc1ccc2c(=O)n(-c3ccccc3)sc2c1`, the half-inhibitory concentration (IC50) was 13.8 µM.

With `O=C1C=CC(=O)N1CCNc1ncc(C(F)(F)F)cc1Cl`, the IC50 was 65.4 µM.
